Test results as given in patent publication US20130072430A1, “METHODS FOR TREATMENT OR PROPHYLAXIS OF KIDNEY OR LIVER DYSFUNCTION” (NPS PHARMACEUTICALS, INC., priority 2010, published 2013).

Tested on: Human patients with short bowel syndrome
Assay: Example 1: kidney diagnostic biomarkers (urea nitrogen, creatinine, GFR) in short bowel syndrome patients, every four weeks for 24 weeks
Format: in vivo
Design: CREATININE (RATE BLANKED) Change from Baseline, Median / GFR, Median / GFR Change from Baseline, Median / UREA NITROGEN, Median / UREA NITROGEN Change from Baseline, Median: unit not given here
Conditions: for CREATININE (RATE BLANKED), Median: unit assumed
Protocol: Human patients with short bowel syndrome were divided into three groups: a control group (16 total individuals) to receive placebo, an experimental group (35 total individuals) to receive teduglutide at 0.05 mg/kg/day throughout the study, and an experimental group (32 total individuals) to receive teduglutide at 0.1 mg/kg/day throughout the study. Patients were treated by subcutaneous injection of placebo or the appropriate dose of teduglutide. As individuals with short bowel syndrome are likely to experience associated liver and kidney disease, known biomarkers of liver and kidney function were monitored every four weeks, for 24 weeks. The liver biomarkers tested included total bilirubin, ALT and AST and ALP. The kidney biomarkers tested included urea nitrogen, creatinine and GFR. Before administration of placebo or teduglutide, diagnostic biomarker levels were tested to establish a baseline for each individual.
To visualize the effect of GLP-2 on the levels of the diagnostic biomarkers, the average change from baseline was calculated for the placebo and teduglutide treated groups for each visit after a baseline was established. The average change from baseline of each group is depicted in FIGS. […]. The numerical figures for each diaanostic biomarker at each time point are depicted in Table 1.
The raw data for this sorting is reproduced in Table 2 below.

[1] = Week 4, range <−5%, teduglutide 0.05 mg/kg/day
[2] = Week 4, range <−5%, teduglutide 0.1 mg/kg/day
[3] = Week 4, range >5%, teduglutide 0.05 mg/kg/day
[4] = Week 4, range >5%, teduglutide 0.1 mg/kg/day
[5] = Week 4, range −5%<= and <=5%, teduglutide 0.05 mg/kg/day
[6] = Week 4, range −5%<= and <=5%, teduglutide 0.1 mg/kg/day
[7] = Week 8, range <−5%, teduglutide 0.05 mg/kg/day
[8] = Week 8, range <−5%, teduglutide 0.1 mg/kg/day
[9] = Week 8, range >5%, teduglutide 0.05 mg/kg/day
[10] = Week 8, range >5%, teduglutide 0.1 mg/kg/day
[11] = Week 8, range −5%<= and <=5%, teduglutide 0.05 mg/kg/day
[12] = Week 8, range −5%<= and <=5%, teduglutide 0.1 mg/kg/day
[13] = Week 12, range <−5%, teduglutide 0.05 mg/kg/day
[14] = Week 12, range <−5%, teduglutide 0.1 mg/kg/day
[15] = Week 12, range >5%, teduglutide 0.05 mg/kg/day

## CC[C@H](C)[C@H](NC(=O)[C@H](Cc1ccccc1)NC(=O)[C@H](CC(=O)O)NC(=O)[C@H](CCCNC(=N)N)NC(=O)[C@H](C)NC(=O)[C@H](C)NC(=O)[C@H](CC(C)C)NC(=O)[C@H](CC(N)=O)NC(=O)[C@H](CC(=O)O)NC(=O)[C@H](CC(C)C)NC(=O)[C@@H](NC(=O)[C@@H](NC(=O)[C@H](CC(N)=O)NC(=O)[C@H](CCSC)NC(=O)[C@H](CCC(=O)O)NC(=O)[C@H](CC(=O)O)NC(=O)[C@H](CO)NC(=O)[C@H](Cc1ccccc1)NC(=O)[C@H](CO)NC(=O)CNC(=O)[C@H](CC(=O)O)NC(=O)CNC(=O)[C@@H](N)Cc1c[nH]cn1)[C@@H](C)O)[C@@H](C)CC)C(=O)N[C@@H](CC(N)=O)C(=O)N[C@@H](Cc1c[nH]c2ccccc12)C(=O)N[C@@H](CC(C)C)C(=O)N[C@H](C(=O)N[C@@H](CCC(N)=O)C(=O)N[C@H](C(=O)N[C@@H](CCCCN)C(=O)N[C@H](C(=O)N[C@H](C(=O)N[C@@H](CC(=O)O)C(=O)O)[C@@H](C)O)[C@@H](C)CC)[C@@H](C)O)[C@@H](C)CC [teduglutide]
0.10 mg/kg/day, DW20
  GFR, Median: 76.1
  UREA NITROGEN Change from Baseline, Mean (SD): −0.0 (1.60)
  UREA NITROGEN Change from Baseline, Median: −0.1
  UREA NITROGEN, Mean (SD): 6.3 (1.91)
  UREA NITROGEN, Median: 6.0
  CREATININE (RATE BLANKED), Median: 88 µmol/L
0.10 mg/kg/day, DW24
  CREATININE (RATE BLANKED) Change from Baseline, Mean (SD): −2.0 (13.18)
  CREATININE (RATE BLANKED) Change from Baseline, Median: 0.0
  CREATININE (RATE BLANKED), Mean (SD): 82.0 (22.35)
  GFR Change from Baseline, Mean (SD): 4.6 (16.73)
  GFR Change from Baseline, Median: 2.3
  GFR, Mean (SD): 82.4 (27.05)
  GFR, Median: 81.1
  UREA NITROGEN Change from Baseline, Mean (SD): −0.2 (1.87)
  UREA NITROGEN Change from Baseline, Median: 0.3
  UREA NITROGEN, Mean (SD): 6.1 (1.98)
  UREA NITROGEN, Median: 5.9
  CREATININE (RATE BLANKED), Median: 81 µmol/L
[1]
  CREATININE (RATE BLANKED) change from baseline: patients in range, n(%): 7(20.0%)
  GFR change from baseline: patients in range, n(%): 13(37.1%)
  UREA NITROGEN change from baseline: patients in range, n(%): 16(45.7%)
[2]
  CREATININE (RATE BLANKED) change from baseline: patients in range, n(%): 12(37.5%)
  GFR change from baseline: patients in range, n(%): 7(21.9%)
  UREA NITROGEN change from baseline: patients in range, n(%): 10(31.3%)
[3]
  CREATININE (RATE BLANKED) change from baseline: patients in range, n(%): 14(40.0%)
  GFR change from baseline: patients in range, n(%): 8(22.9%)
  UREA NITROGEN change from baseline: patients in range, n(%): 7(20.0%)
[4]
  CREATININE (RATE BLANKED) change from baseline: patients in range, n(%): 7(21.9%)
  GFR change from baseline: patients in range, n(%): 14(43.8%)
  UREA NITROGEN change from baseline: patients in range, n(%): 15(46.9%)
[5]
  CREATININE (RATE BLANKED) change from baseline: patients in range, n(%): 9(25.7%)
  GFR change from baseline: patients in range, n(%): 9(25.7%)
  UREA NITROGEN change from baseline: patients in range, n(%): 7(20.0%)
[6]
  CREATININE (RATE BLANKED) change from baseline: patients in range, n(%): 13(40.6%)
  GFR change from baseline: patients in range, n(%): 11(34.4%)
  UREA NITROGEN change from baseline: patients in range, n(%): 7(21.9%)
[7]
  CREATININE (RATE BLANKED) change from baseline: patients in range, n(%): 11(31.4%)
  GFR change from baseline: patients in range, n(%): 9(25.7%)
  UREA NITROGEN change from baseline: patients in range, n(%): 14(40.0%)
[8]
  CREATININE (RATE BLANKED) change from baseline: patients in range, n(%): 8(25.0%)
  GFR change from baseline: patients in range, n(%): 9(28.1%)
  UREA NITROGEN change from baseline: patients in range, n(%): 9(28.1%)
[9]
  CREATININE (RATE BLANKED) change from baseline: patients in range, n(%): 10(28.6%)
  GFR change from baseline: patients in range, n(%): 12(34.3%)
  UREA NITROGEN change from baseline: patients in range, n(%): 10(28.6%)
[10]
  CREATININE (RATE BLANKED) change from baseline: patients in range, n(%): 13(40.6%)
  GFR change from baseline: patients in range, n(%): 9(28.1%)
  UREA NITROGEN change from baseline: patients in range, n(%): 15(46.9%)
[11]
  CREATININE (RATE BLANKED) change from baseline: patients in range, n(%): 8(22.9%)
  GFR change from baseline: patients in range, n(%): 7(20.0%)
  UREA NITROGEN change from baseline: patients in range, n(%): 5(14.3%)
[12]
  CREATININE (RATE BLANKED) change from baseline: patients in range, n(%): 10(31.3%)
  GFR change from baseline: patients in range, n(%): 13(40.6%)
  UREA NITROGEN change from baseline: patients in range, n(%): 7(21.9%)
[13]
  CREATININE (RATE BLANKED) change from baseline: patients in range, n(%): 7(20.0%)
  GFR change from baseline: patients in range, n(%): 15(42.9%)
  UREA NITROGEN change from baseline: patients in range, n(%): 17(48.6%)
[14]
  CREATININE (RATE BLANKED) change from baseline: patients in range, n(%): 9(28.1%)
  GFR change from baseline: patients in range, n(%): 11(34.4%)
  UREA NITROGEN change from baseline: patients in range, n(%): 13(40.6%)
[15]
  CREATININE (RATE BLANKED) change from baseline: patients in range, n(%): 16(45.7%)
  GFR change from baseline: patients in range, n(%): 6(17.1%)
  UREA NITROGEN change from baseline: patients in range, n(%): 6(17.1%)
